Measurements from article PMC10288581 (Frontiers in Pharmacology, 2023).
Values joined by “and” are separate entries in the source; they are usually repeats but may differ in a detail not shown here. Identical values can stand only once. Like-named read-outs stand apart in the source and are kept apart here. Values belong to the compound of their own block, whether it stands above or below them.

Key:
CYP3A4 [1] = system: CYP3A4; design: method as in Mikus et al., 2006; conditions: read-out: Michaelis-Menten constant (Km) of voriconazole oxidase activity; CYP3A4 expressed in human CYP enzyme; ref Mikus et al., 2006; cited from earlier work
[2] = ref Geist et al., 2013; Hohmann et al., 2016; cited from earlier work
clinical = conditions: human, in vivo
Excerpt: After the second sequence of drug administration, follow-up data were collected for 2 weeks (from day 16 to day 30) from all volunteers regarding any side effects or toxicity-related issues. […] Blurring vision has been reported as a major side effect in the literature ([Theuretzbacher et al., 2006]). […] In the follow-up period, we carefully monitored the aspartate aminotransferase (AST) and alanine transaminase (ALT) biochemical test reports of that volunteer.

[3] = cited from earlier work
[4] = Single oral dose, randomized, crossover PK-DDI study of voriconazole with clarithromycin; plasma voriconazole by RP HPLC UV-Vis, non-compartmental analysis; assay type: in vivo, human; conditions: for Cmaax of voriconazole, Mean & std. Deviation / Erate (elimination rate) of voriconazole, Mean & std. Deviation / tmax (time to reach Cmax) of voriconazole, Mean & std. Deviation: single oral dose; for concentration at 0.5 h / concentration at 1 h / concentration at 1.5 h / concentration at 2 h / concentration at 3 h / concentration at 4 h / concentration at 6 h / concentration at 8 h / concentration at 24 h: male, oral, Voriconazole plasma concentration
Experimental: The study designed was a single oral dose, open-labeled, randomized, crossover, and consisted of 02 weeks of washouts in between for evaluating drug-drug interaction in healthy volunteers.
A 2-week washout period was allocated from day 2 to day 15 to avoid the carry-over effect. […] All volunteers took the medication with a glass of water (250 mL). On days 1 and 16 (treatment days), two and 6 hours after drug administration, standard breakfast and lunch were served to all volunteers, respectively.
After taking blood samples, immediately these samples were centrifuged (at 500 rpm for 10–15 min) to separate plasma from blood (RBC) and stored at −80°C till analysis.
The plasma samples were subjected to protein precipitation and drug extraction with acetonitrile (ACN). A fixed volume of plasma (200 μL), ACN (200 μL), and internal standard (i.e., 2 μg/mL of fluconazole), taken into Eppendorf tubes were vortexed (for 5 min) and kept in the centrifuge at 10,000 RPM for 10–15 min for protein separation. Their supernatant (organic layer) layer was cautiously separated and analyzed by the already developed method. Chromatographic conditions of the HPLC-UV method comprised of isocratic mobile-phase ACN: H2O in 60:40 v/v proportions at a flow rate of 1.5 mL/min and UV detection at 254 nm. Then each sample was analyzed at least three times using the Flexar-series HPLC system, Norwalk, USA, by utilizing a C-18 Perkin-Elmer® column (with particulars of 150 mm length, 4.6 mm inner diameter, and 5 μm particle size). The total run time for each sample was ≤7.0 min.
The pharmacokinetic (PK) parameters used for PK-DDI assessment and plasma drug concentration vs. time profile were analyzed statistically through a non-compartmental approach.Pharmacokinetics PK-Summit® (version 2.0.2; Summit Research Services, Ashland, OH) software was used to evaluate all pharmacokinetic parameters. The various non-compartmental pharmacokinetic (PK) parameters calculated were peak plasma concentration (Cmax, µg/mL), time to reach Cmax (tmax, h), the elimination half-life (E-t1/2, h), an area under the curve from time zero to infinity (AUC^0-∞, μg×h/mL), and the area under the concentration-time curve from time zero to time-t (AUC^0-t, μg×h/mL), mean residence time (MRT, h), elimination rate (Erate, 1/h), apparent clearance (CL/Kg, L/h/Kg) and apparent volume of distribution (Vd, L/Kg).
Descriptive statistical tests were performed using SPSS software (version 21.0; IBM Crop; SPSS®; 2012); for a non-compartmental approach Pharmacokinetics PK-Summit® (version 2.0.2; Summit Research Services, Ashland, OH) software and MS-Excel used for results evaluation, and such data were presented graphically. […] The SPSS software (version 21.0; IBM Crop; SPSS®; 2012) procedure MIXED was used with treatment and visits as a fixed effect and subject as a random effect using the Residual maximum likelihood REML method. Sharpiro-Wilk test was used to check the normality of PK parameters. Log transformation was applied to those PK parameters (such as Cmax, MRT, apparent Vd, and E-t1/2) which were not normally distributed. […] These differences were evaluated by the ratios of geometric means between treatments and used a 90% CI for these ratios.

P-glycoprotein = system: P-glycoprotein; design: method as in Vermeer et al., 2016; conditions: in-vitro data; ref Vermeer et al., 2016; cited from earlier work
[5] = ref Kristin et al., 2017; cited from earlier work
CYP3A4 [6] = system: CYP3A4; design: method as in Elsby et al., 2019; conditions: ref Elsby et al., 2019; read-out: inhibition constant Ki; cited from earlier work
MRP2 = system: MRP2; design: method as in Vermeer et al., 2016; conditions: in-vitro data; ref Vermeer et al., 2016; cited from earlier work
OATP1B1 = system: OATP1B1; design: method as in Müller and Fromm, 2011; Vermeer et al., 2016; conditions: ref Müller and Fromm, 2011; Vermeer et al., 2016; cited from earlier work
CYP2C19 = system: CYP2C19; design: method as in Obach et al., 2006; conditions: in-vitro data; ref Obach et al., 2006; cited from earlier work
OATP 1B3 = system: OATP 1B3; design: method as in Müller and Fromm, 2011; Vermeer et al., 2016; conditions: ref Müller and Fromm, 2011; Vermeer et al., 2016; cited from earlier work
CYP3A4 [7] = system: CYP3A4; design: method as in Obach et al., 2006; Galetin et al., 2007; conditions: ref Obach et al., 2006; Galetin et al., 2007; cited from earlier work
2C9 = system: 2C9; design: method as in Obach et al., 2006; conditions: in-vitro data; ref Obach et al., 2006; cited from earlier work
[8] = Voriz (Alone): voriconazole 200 mg × 2 tablets, n = 12
[9] = Voriz + CLRM: voriconazole 200 mg × 2 tablets + clarithromycin 500 mg tablet, n = 12
[10] = human, plasma, 400 mg, Series 1: voriconazole 400 mg alone
[11] = human, plasma, Series 2: voriconazole 400 mg along with clarithromycin 500 mg
[12] = with clarithromycin versus alone, stated as decrease

Cmax (clinical; male): 5000 ng/mL
Duration of blurred vision (clinical; male): 10 to 15 min
Cmaax of voriconazole, Mean & std. Deviation ([4]; Voriz (Alone): voriconazole 200 mg × 2 tablets, fasted healthy male volunteers n = 12): 2.52 ± 0.21 µg/mL
Erate (elimination rate) of voriconazole, Mean & std. Deviation [4, 8]: 0.09 h⁻¹ and 0.09 ± 0.02 h⁻¹
tmax (time to reach Cmax) of voriconazole, Mean & std. Deviation [4, 8]: 2.00 ± 0 h and 2 h
AUC0-t of voriconazole, % difference ([4]; Voriz + CLRM vs Voriz (Alone)): 16%
Apparent Vd/kg of voriconazole, % difference ([4]; Voriz + CLRM vs Voriz (Alone)): −23%
Cmaax of voriconazole, % difference ([4]; Voriz + CLRM vs Voriz (Alone)): 52%
MRT of voriconazole, % difference ([4]; Voriz + CLRM vs Voriz (Alone)): −10%
tmax of voriconazole, % difference ([4]; Voriz + CLRM vs Voriz (Alone)): −25%
Cmaax of voriconazole, Mean & std. Deviation [4, 9]: 3.84 ± 0.562 µg/mL
Erate (elimination rate) of voriconazole, Mean & std. Deviation [4, 9]: 0.11 h⁻¹ and 0.11 ± 0.02 h⁻¹
tmax (time to reach Cmax) of voriconazole, Mean & std. Deviation [4, 9]: 1.50 ± 0 h and 1.5 h
AUC(0-inf) ([4]; human, plasma, po, 400 mg): 9090 ± 790 ng·h/mL
AUC(0-t) ([4]; human, plasma, po, 400 mg): 8600 ± 720 ng·h/mL
MRT ([4]; human, plasma, po, 400 mg): 6.16 ± 0.95 h
half-life ([4]; human, plasma, po, 400 mg): 476 ± 31.8 min
concentration at 0.5 h [4, 10]: 225 ng/mL
concentration at 1 h [4, 10]: 1020 ng/mL
concentration at 1.5 h [4, 10]: 1890 ng/mL
concentration at 2 h [4, 10]: 2520 ng/mL
concentration at 3 h [4, 10]: 1320 ng/mL
concentration at 4 h [4, 10]: 781 ng/mL
concentration at 6 h [4, 10]: 401 ng/mL
concentration at 8 h [4, 10]: 170 ng/mL
concentration at 24 h [4, 10]: 39.1 ng/mL
concentration at 0.5 h [4, 11]: 378 ng/mL
concentration at 1 h [4, 11]: 2040 ng/mL
concentration at 1.5 h [4, 11]: 3840 ng/mL
concentration at 2 h [4, 11]: 2500 ng/mL
concentration at 3 h [4, 11]: 995 ng/mL
concentration at 4 h [4, 11]: 661 ng/mL
concentration at 6 h [4, 11]: 433 ng/mL
concentration at 8 h [4, 11]: 224 ng/mL
concentration at 24 h [4, 11]: 41.8 ng/mL
decrease in tmax of voriconazole [4, 12]: 25%
decrease of E-t1/2 of voriconazole [4, 12]: 26%
decrease of MRT of voriconazole [4, 12]: 10%
reduction (decrease) in the apparent volume of distribution (Vd) of voriconazole [4, 12]: 23%
SMILES: C[C@@H](c1ncncc1F)[C@](O)(Cn1cncn1)c1ccc(F)cc1F [voriconazole, (2R, 3S) -2-(2,4-difluorophenyl) -3-(5-fluora-4pyrimidinyl) -1-(1H −1,2,4-trizole-1-yl) -2-butanol]
Km (CYP3A4 [1]): 235 µM
oral bioavailability (B.A) [2]: 96%
Side effect: blurred vision (clinical): Blurred vision was observed in two volunteers
Side effect: dizziness (clinical): One of our volunteers had felt dizziness
protein binding ([3]; ref Geist et al., 2013): 58%

SMILES: CC[C@H]1OC(=O)[C@H](C)[C@@H](O[C@H]2C[C@@](C)(OC)[C@@H](O)[C@H](C)O2)[C@H](C)[C@@H](O[C@@H]2O[C@H](C)C[C@H](N(C)C)[C@H]2O)[C@](C)(OC)C[C@@H](C)C(=O)[C@H](C)[C@@H](O)[C@]1(C)O [clarithromycin, 6-O-Methylerthromycin]
IC50 (P-glycoprotein): 8.9 ± 0.5 µM
BCS class [5]: class-II
IC50 (MRP2): > 50 µM
IC50 (OATP1B1): 5.3 ± 1.3 µM
inhibitory concentration of CYP2C19 (CYP2C19): 11%
protein binding ([3]; ref Langtry and Brogden, 1997): 42%–72
IC50 (OATP 1B3): 14 ± 2 µM
potential to inhibit the CYP3A4 at the intestinal level (CYP3A4 [7]): 60%–70
inhibitory concentration of 2C9 (2C9): 4%
